Measured values: US20100063008A1, “GELATINOUS ELASTOMER COMPOSITIONS” (Silipos, Inc., priority 2008, published 2010)

How the values were obtained:
[1] = Exudation of active agents from gel specimens to filter paper discs, quantified by UV, MS, GC and/or HPLC after extraction; assay type: physicochemical; settings: for Active Agent Transferred from Gel to Filters: 37° C., 0.40 psi; for Total Active Agent Exuded from Gel: cumulative
Experimental: Sample filter paper discs were placed in contact with gel specimens of same diameter under constant low pressure (0.40 psi. (2.8 Mpa)) at 37° C. Multiple time-controlled exposures of the filter paper to the gel were preformed in succession to same side of gel. Quantification of active agent transferred to the filter paper discs was determined by UV, MS, GC and or HPLC analysis after extraction of active agent from the filter paper. Exudation rates was expressed as μg/unit time per unit surface area.
This compound was then divided into three aliquots' of approximately 10 grams each and poured into a 2.625″ diameter aluminum petri dish and allowed to cool to create individual gel samle discs. Subsequently, absorbent cellulose filter blotter paper was die cut to enough 2.625″ diameter discs to be employed as a wicking media for repeated exposure in direct contact with the gel compound under specific conditions as follows.
(§1) Exposure Conditions: 37-40 deg. C., Sample filter paper discs in contact with gel specimens of same diameter were stacked in […]. aluminum petri dishes, gel specimen diameter 2.625″×0.125″ thick, filter paper disc diameter 2.625″ with another petri dish and a 1 kg dead weight on top of stack. Pressure calculated at ˜0.407 psi. (2.8 Mpa) constant. Two replicates per test condition. Repeat exposures at 3 hours then repeat three exposures of 18 hours each, changing discs but keeping same gel specimen and same side of each gel specimen in contact with each successive filter paper disc sample.
The filter paper disc specimens aa through kk were then sent to an analytical laboratory for HPLC and GC analysis along with a small sample of each individual raw ingredient so that the HPLC and GC equipment could be calibrated for the protocol being employed by the lab. This calibration allowed for determining the maximum recoverable (measurable) amount of each ingredient that could be measured using these techniques and would later be used to correct the data. The analytical laboratory then detected and measured the amount of each of the added active agents that was flushed out of the filter paper discs using wet chemistry techniques known to those skilled in the art.
The analytical data was interpreted, and the amounts of each ingredient which was exuded into each filter paper blotter disc specimen, and subsequently extracted using wet chemistry, were then entered into a data analysis spreadsheet and adjusted based on the Analytical Recovery Rate to determine actual concentration of each ingredient extracted.

[2] = Total weight of exudate (oil) absorbed by filter paper blotter discs and theoretical amount of each ingredient exuded; assay type: physicochemical
Experimental: as §1
Data was calculated to determine the total weight of exudate absorbed by each individual sample filter paper blotter disc test specimen. Calculations were then performed based upon the ratios of ingredients in the gel disc formula to determine the theoretical amount of each ingredient that could have been exuded from the oil if the oil contained the same ratio of ingredients as contained in the control oil sample and in the gel.

[3] = Gel Specimen Number 1, 1 h filter exposure, time 0-1 h
[4] = Gel Specimen Number 1, 3 h filter exposure, time 1-4 h
[5] = Gel Specimen Number 1, 18 h filter exposure, time 4-22 h
[6] = Gel Specimen Number 1, 18 h filter exposure, time 22-40 h
[7] = Gel Specimen Number 1, 18 h filter exposure, time 40-58 h
[8] = Gel Specimen Number 1, Time 1 h
[9] = Gel Specimen Number 1, Time 4 h
[10] = Gel Specimen Number 1, Time 22 h
[11] = Gel Specimen Number 1, Time 40 h
[12] = Gel Specimen Number 1, Time 58 h
[13] = Gel Specimen Number 2, 1 h filter exposure, time 0-1 h
[14] = Gel Specimen Number 2, 3 h filter exposure, time 1-4 h
[15] = Gel Specimen Number 2, 18 h filter exposure, time 4-22 h
[16] = Gel Specimen Number 2, 18 h filter exposure, time 22-40 h
[17] = Gel Specimen Number 2, 18 h filter exposure, time 40-58 h
[18] = Gel Specimen Number 2, Time 1 h
[19] = Gel Specimen Number 2, Time 4 h
[20] = Gel Specimen Number 2, Time 22 h
[21] = Gel Specimen Number 2, Time 40 h
[22] = Gel Specimen Number 2, Time 58 h
[23] = Specimen aa, Hours 1, Cummulative Hours 1
[24] = Specimen bb, Hours 1, Cummulative Hours 1
[25] = Specimen cc, Hours 3, Cummulative Hours 4
[26] = Specimen dd, Hours 3, Cummulative Hours 4
[27] = Specimen ee, Hours 18, Cummulative Hours 22
[28] = Specimen ff, Hours 18, Cummulative Hours 22
[29] = Specimen gg, Hours 18, Cummulative Hours 40
[30] = Specimen hh, Hours 18, Cummulative Hours 40
[31] = Specimen ii, Hours 18, Cummulative Hours 58
[32] = Specimen kk, Hours 18, Cummulative Hours 58

For `O=C(O)c1ccccc1O` [Salicylic Acid, reference compound], the “Active Agent Transferred from Gel to Filters” value (“Active Agent Transferred” for short) [1, 3] was 372 μg per filter, the “Active Agent Transferred” value [1, 4] was 793 μg per filter and the “Active Agent Transferred” value [1, 5] was 4765 μg per filter. For the same compound, the “Active Agent Transferred” value [1, 6] was 6600 μg per filter, the “Active Agent Transferred” value [1, 7] was 4035 μg per filter and the “Total Active Agent Exuded from Gel” value [1, 8] was 372 µg. For the same compound, the “Total Active Agent Exuded from Gel” value [1, 9] was 1165 µg, the “Total Active Agent Exuded from Gel” value [1, 10] was 5929 µg and the “Total Active Agent Exuded from Gel” value [1, 11] was 12529 µg. The “Total Active Agent Exuded from Gel” value [1, 12] was 16565 µg, the “Active Agent Transferred” value [1, 13] was 705 μg per filter and the “Active Agent Transferred” value [1, 14] was 1459 μg per filter. For the same compound, the “Active Agent Transferred” value [1, 15] was 5153 μg per filter, the “Active Agent Transferred” value [1, 16] was 4976 μg per filter and the “Active Agent Transferred” value [1, 17] was 3941 μg per filter. For the same compound, the “Total Active Agent Exuded from Gel” value [1, 18] was 705 µg, the “Total Active Agent Exuded from Gel” value [1, 19] was 2164 µg and the “Total Active Agent Exuded from Gel” value [1, 20] was 7316 µg. The “Total Active Agent Exuded from Gel” value [1, 21] was 12293 µg and the “Total Active Agent Exuded from Gel” value [1, 22] was 16234 µg.
For Ceramide III, the “Active Agent Transferred” value [1, 3] was 18 μg per filter, the “Active Agent Transferred” value [1, 4] was 18 μg per filter and the “Active Agent Transferred” value [1, 5] was 25 μg per filter. For the same compound, the “Active Agent Transferred” value [1, 6] was 29 μg per filter, the “Active Agent Transferred” value [1, 7] was 10 μg per filter and the “Total Active Agent Exuded from Gel” value [1, 8] was 18 µg. For the same compound, the “Total Active Agent Exuded from Gel” value [1, 9] was 35 µg, the “Total Active Agent Exuded from Gel” value [1, 10] was 60 µg and the “Total Active Agent Exuded from Gel” value [1, 11] was 89 µg. The “Total Active Agent Exuded from Gel” value [1, 12] was 99 µg, the “Active Agent Transferred” value [1, 13] was 20 μg per filter and the “Active Agent Transferred” value [1, 14] was 24 μg per filter. For the same compound, the “Active Agent Transferred” value [1, 15] was 22 μg per filter, the “Active Agent Transferred” value [1, 16] was 13 μg per filter and the “Active Agent Transferred” value [1, 17] was 20 μg per filter. The “Total Active Agent Exuded from Gel” value [1, 18] was 20 µg, the “Total Active Agent Exuded from Gel” value [1, 19] was 43 µg and the “Total Active Agent Exuded from Gel” value [1, 20] was 65 µg. For the same compound, the “Total Active Agent Exuded from Gel” value [1, 21] was 78 µg, the “Total Active Agent Exuded from Gel” value [1, 22] was 98 µg and the “Quantitative Analysis - Islechem u-gram extraction” value (from here on “Quantitative Analysis”) [1, 23] was 17 u-gram. For the same compound, the “Quantitative Analysis” value [1, 24] was 19 u-gram, the “Quantitative Analysis” value [1, 25] was 17 u-gram and the “Quantitative Analysis” value [1, 26] was 23 u-gram. For the same compound, the “Quantitative Analysis” value [1, 27] was 24 u-gram, the “Quantitative Analysis” value [1, 28] was 21 u-gram and the “Quantitative Analysis” value [1, 29] was 28 u-gram. The “Quantitative Analysis” value [1, 30] was 13 u-gram, the “Quantitative Analysis” value [1, 31] was 9.6 u-gram and the “Quantitative Analysis” value [1, 32] was 19 u-gram.
In the case of `COC(=O)c1ccccc1O` [Methyl Salicylate, reference compound], the “Estimated grams of ingredient exuded (theoretical amount from ratios of ingredients in the gel disc formula)” value ([2]; Sample aa, Test Disc 1, Exposed 1 hours) is reported as 0.0022 grams, the “Estimated grams of ingredient exuded (theoretical amount from ratios of ingredients in the gel disc formula)” value ([2]; Sample bb, Test Disc 1 Replicate, Exposed 1 hours) is reported as 0.0031 grams and the “Estimated grams of ingredient exuded (theoretical amount from ratios of ingredients in the gel disc formula)” value ([2]; Sample cc, Test Disc 2, Exposed 3 hours) is reported as 0.0024 grams. For the same compound, the “Estimated grams of ingredient exuded (theoretical amount from ratios of ingredients in the gel disc formula)” value ([2]; Sample dd, Test Disc 2 Replicate, Exposed 3 hours) was 0.0035 grams, the “Estimated grams of ingredient exuded (theoretical amount from ratios of ingredients in the gel disc formula)” value ([2]; Sample ee, Test Disc 3, Exposed 18 hours) was 0.0062 grams and the “Estimated grams of ingredient exuded (theoretical amount from ratios of ingredients in the gel disc formula)” value ([2]; Sample ff, Test Disc 3 Replicate, Exposed 18 hours) was 0.0062 grams. The “Estimated grams of ingredient exuded (theoretical amount from ratios of ingredients in the gel disc formula)” value ([2]; Sample gg, Test Disc 4, Exposed 18 hours) was 0.0064 grams, the “Estimated grams of ingredient exuded (theoretical amount from ratios of ingredients in the gel disc formula)” value ([2]; Sample hh, Test Disc 4 Replicate, Exposed 18 hours) was 0.0057 grams and the “Estimated grams of ingredient exuded (theoretical amount from ratios of ingredients in the gel disc formula)” value ([2]; Sample ii, Test Disc 5, Exposed 18 hours) was 0.0051 grams. For the same compound, the “Estimated grams of ingredient exuded (theoretical amount from ratios of ingredients in the gel disc formula)” value ([2]; Sample kk, Test Disc 5 Replicate, Exposed 18 hours) was 0.0051 grams, the “Active Agent Transferred” value [1, 3] was 1005 μg per filter and the “Active Agent Transferred” value [1, 4] was 1694 μg per filter. The “Active Agent Transferred” value [1, 5] was 4812 μg per filter, the “Active Agent Transferred” value [1, 6] was 5165 μg per filter and the “Active Agent Transferred” value [1, 7] was 3882 μg per filter. For the same compound, the “Total Active Agent Exuded from Gel” value [1, 8] was 1005 µg, the “Total Active Agent Exuded from Gel” value [1, 9] was 2699 µg and the “Total Active Agent Exuded from Gel” value [1, 10] was 7511 µg. The “Total Active Agent Exuded from Gel” value [1, 11] was 12675 µg, the “Total Active Agent Exuded from Gel” value [1, 12] was 16558 µg and the “Active Agent Transferred” value [1, 13] was 1753 μg per filter. The “Active Agent Transferred” value [1, 14] was 2506 μg per filter, the “Active Agent Transferred” value [1, 15] was 4847 μg per filter and the “Active Agent Transferred” value [1, 16] was 4271 μg per filter. The “Active Agent Transferred” value [1, 17] was 3729 μg per filter, the “Total Active Agent Exuded from Gel” value [1, 18] was 1753 µg and the “Total Active Agent Exuded from Gel” value [1, 19] was 4259 µg. The “Total Active Agent Exuded from Gel” value [1, 20] was 9106 µg, the “Total Active Agent Exuded from Gel” value [1, 21] was 13376 µg and the “Total Active Agent Exuded from Gel” value [1, 22] was 17106 µg. The “Quantitative Analysis” value [1, 23] was 854 u-gram, the “Quantitative Analysis” value [1, 24] was 1490 u-gram and the “Quantitative Analysis” value [1, 25] was 1440 u-gram. The “Quantitative Analysis” value [1, 26] was 2130 u-gram, the “Quantitative Analysis” value [1, 27] was 4090 u-gram and the “Quantitative Analysis” value [1, 28] was 4120 u-gram. For the same compound, the “Quantitative Analysis” value [1, 29] was 4390 u-gram, the “Quantitative Analysis” value [1, 30] was 3630 u-gram and the “Quantitative Analysis” value [1, 31] was 3300 u-gram. For the same compound, the “Quantitative Analysis” value [1, 32] was 3170 u-gram.
